In general, IC50 refers to the concentration at which inhibition is half-maximal. Broadly, the inhibition is the relative decrease from the control value, in per cent.

Where two headings read alike, the source gives them in different places.

One test addresses T1, CCR2 (Homo sapiens, UniProt P41597).
T1 sequence (P41597 1-360 isoform P41597-2): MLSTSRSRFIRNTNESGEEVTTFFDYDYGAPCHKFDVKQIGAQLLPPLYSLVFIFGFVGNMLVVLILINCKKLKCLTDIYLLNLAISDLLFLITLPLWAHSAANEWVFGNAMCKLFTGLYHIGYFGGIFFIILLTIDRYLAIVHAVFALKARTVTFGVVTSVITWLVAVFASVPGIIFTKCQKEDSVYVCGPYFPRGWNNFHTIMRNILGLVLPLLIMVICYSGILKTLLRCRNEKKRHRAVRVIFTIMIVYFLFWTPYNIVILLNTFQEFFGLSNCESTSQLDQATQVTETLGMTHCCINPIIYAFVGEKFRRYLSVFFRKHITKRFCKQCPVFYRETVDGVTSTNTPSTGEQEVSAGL

Test [1] deals with THP-1 cells. As to conditions: Homo sapiens; for IC50: THP-1, read-out: Inhibition of MCP-1 Induced Calcium Ion Influx IC50.
Test [2] relates to THP-1 cells. Kind of test: MCP-1 Induced Chemotaxis in THP-1 Cells. As to conditions: Homo sapiens; THP-1 cells, MCP-1 0.01 μg/mL, 3 hours; read-out: Inhibition of MCP-1 Induced Chemotaxis IC50. Type of test: cell-based.

For the compound `O=C(/C=C/c1cc(F)c(F)c(F)c1)N1CCC(C(CO)N2CCC(c3ccncc3)CC2)CC1` (stereo not drawn) [Cpd 183, (2E)-1-{4-[2-hydroxy-1-(3,4,5,6-tetrahydro-2H-[4,4′]bipyridinyl-1-yl)-ethyl]-piperidin-1-yl}-3-(3,4,5-trifluoro-phenyl)-propenone], the IC50 on CCR2 amounted to 470 nM; with THP-1 cells [1], 9250 nM; with THP-1 cells [2] it was 400 nM.

As for `Cc1cc(NC(=O)N2CCC(C(C(=O)O)N3CCC(c4c[nH]c5ccccc45)CC3)CC2)ccc1Br` (stereo not drawn) [Cpd 101, [1-(4-bromo-3-methyl-phenylcarbamoyl)-piperidin-4-yl]-[4-(1H-indol-3-yl)-piperidin-1-yl]-acetic acid], the concentration for half-maximal inhibition (IC50) against CCR2 came to 20 nM; with THP-1 cells [1], 130 nM; in the test with THP-1 cells [2] it was 140 nM.

As for `COc1cccc2c(C3CCN(C(CO)C4CCN(C(=O)/C=C/c5cc(F)c(F)c(F)c5)CC4)CC3)c[nH]c12` (stereo not drawn) [Cpd 133, (2E)-1-(4-{2-hydroxy-1-[4-(7-methoxy-1H-indol-3-yl)-piperidin-1-yl]-ethyl}-piperidin-1-yl)-3-(3,4,5-trifluoro-phenyl)-propenone], the half-inhibitory concentration (IC50) on CCR2 was 10 nM; in the test with THP-1 cells [1], 0.8 nM; with THP-1 cells [2], 40 nM.

Consider `Cc1cccc(NC(=O)N2CCC(C(C(=O)O)N3CCC(c4c[nH]c5ccccc45)CC3)CC2)c1` (stereo not drawn) [Cpd 98, [4-(1H-indol-3-yl)-piperidin-1-yl]-(1-m-tolylcarbamoyl-piperidin-4-yl)-acetic acid], for which the IC50 against CCR2 was 890 nM; in the test on THP-1 cells [1], 1850 nM; in the test on THP-1 cells [2], 2200 nM.

Take `CS(=O)(=O)Nc1ccc2[nH]cc(C3CCN(C(C(=O)O)C4CCN(C(=O)Nc5ccc(Cl)c(Cl)c5)CC4)CC3)c2c1` (stereo not drawn) [Cpd 109, [1-(3,4-dichloro-phenylcarbamoyl)-piperidin-4-yl]-[4-(5-methanesulfonylamino-1H-indol-3-yl)-piperidin-1-yl]-acetic acid]: the IC50 on CCR2 came to 20 nM; with THP-1 cells [1], 30 nM; with THP-1 cells [2] it was 30 nM.

Turning to `COc1ccccc1C1CCN(C(CO)C2CCN(C(=O)/C=C/c3cc(F)cc(F)c3)CC2)CC1` (stereo not drawn) [Cpd 203, (2E)-3-(3,5-difluoro-phenyl)-1-(4-{2-hydroxy-1-[4-(2-methoxy-phenyl)-piperidin-1-yl]-ethyl}-piperidin-1-yl)-propenone], the IC50 was determined as 510 nM at CCR2, 5000 nM with THP-1 cells [1] and 1200 nM in the test on THP-1 cells [2].

On to `CC(=O)NCC(C1CCN(C(=O)/C=C/c2cc(F)cc(F)c2)CC1)N1CCC(c2c[nH]c3ccccc23)CC1` (stereo not drawn) [Cpd 214, N-{2-{1-[(2E)-3-(3,5-difluoro-phenyl)-acryloyl]-piperidin-4-yl}-2-[4-(1H-indol-3-yl)-piperidin-1-yl]-ethyl}-acetamide], for which the IC50 turned out to be 70 nM at CCR2, 180 nM with THP-1 cells [1] and 190 nM in the test on THP-1 cells [2].

Take `O=C(O)c1ccc2[nH]cc(C3CCN(C(C(=O)O)C4CCN(C(=O)/C=C/c5cc(F)c(F)c(F)c5)CC4)CC3)c2c1` (stereo not drawn) [Cpd 147, 3-[1-(carboxy-{1-[(2E)-3-(3,4,5-trifluoro-phenyl)-acryloyl]-piperidin-4-yl}-methyl)-piperidin-4-yl]-1H-indole-5-carboxylic acid]: the IC50 at CCR2 turned out to be 150 nM; in the test on THP-1 cells [1] it was 600 nM; in the test on THP-1 cells [2], 40 nM.

On to `Cc1ccc(NC(=O)N2CCC(C(C(=O)O)N3CCC(c4c[nH]c5ccccc45)CC3)CC2)cc1F` (stereo not drawn) [Cpd 105, [1-(3-fluoro-4-methyl-phenylcarbamoyl)-piperidin-4-yl]-[4-(1H-indol-3-yl)-piperidin-1-yl]-acetic acid], for which the IC50 against CCR2 turned out to be 90 nM; in the test on THP-1 cells [1], 130 nM; with THP-1 cells [2], 10 nM.

On to `COc1ccc2c(C3CCN(C(CO)C4CCN(C(=O)/C=C/c5cc(F)cc(F)c5)CC4)CC3)c[nH]c2c1` (stereo not drawn) [Cpd 165, (2E)-3-(3,5-difluoro-phenyl)-1-(4-{2-hydroxy-1-[4-(6-methoxy-1H-indol-3-yl)-piperidin-1-yl]-ethyl}-piperidin-1-yl)-propenone], for which the IC50 against CCR2 turned out to be 80 nM; in the test on THP-1 cells [1], 110 nM; in the test with THP-1 cells [2], 25 nM.

Turning to `O=C(/C=C/c1ccc(F)c(Br)c1)N1CCC(C(CO)N2CCC(c3ccncc3)CC2)CC1` (stereo not drawn) [Cpd 186, (2E)-3-(3-bromo-4-fluoro-phenyl)-1-{4-[2-hydroxy-1-(3,4,5,6-tetrahydro-2H-[4,4′]bipyridinyl-1-yl)-ethyl]-piperidin-1-yl}-propenone], the values for the IC50 at CCR2, in the test on THP-1 cells [1] and with THP-1 cells [2] were 360 nM, 6100 nM and 960 nM, respectively.

Consider `O=C(/C=C/c1ccc(F)c(Br)c1)N1CCC(C(CO)N2CCC(c3c[nH]c4ccc(F)cc34)CC2)CC1` (stereo not drawn) [Cpd 172, (2E)-3-(3-bromo-4-fluoro-phenyl)-1-(4-{1-[4-(5-fluoro-1H-indol-3-yl)-piperidin-1-yl]-2-hydroxy-ethyl}-piperidin-1-yl)-propenone], for which the IC50 against CCR2 is 32 nM; in the test with THP-1 cells [1], 20 nM; in the test on THP-1 cells [2], 30 nM.

Take `CSc1ccc(NC(=O)N2CCC(C(C(=O)O)N3CCC(c4c[nH]c5ccccc45)CC3)CC2)cc1` (stereo not drawn) [Cpd 127, [4-(1H-indol-3-yl)-piperidin-1-yl]-[1-(4-methylsulfanyl-phenylcarbamoyl)-piperidin-4-yl]-acetic acid]: the IC50 on CCR2 was 760 nM; in the test with THP-1 cells [1], 820 nM; in the test with THP-1 cells [2], 750 nM.

In the case of `O=C(O)C(C1CCN(C(=O)/C=C/c2cc(F)c(F)c(F)c2)CC1)N1CCC(c2c[nH]c3cccnc23)CC1` (stereo not drawn) [Cpd 207, [4-(1H-pyrrolo[3,2-b]pyridin-3-yl)-piperidin-1-yl]-{1-[(2E)-3-(3,4,5-trifluoro-phenyl)-acryloyl]-piperidin-4-yl}-acetic acid], the IC50 against CCR2 turned out to be 210 nM; with THP-1 cells [1], 110 nM; with THP-1 cells [2] it was 190 nM.

Consider `O=C(O)C(C1CCN(C(=O)/C=C/c2ccsc2)CC1)N1CCC(c2c[nH]c3ccccc23)CC1` (stereo not drawn) [Cpd 104, [4-(1H-indol-3-yl)-piperidin-1-yl]-{1-[(2E)-3-thiophen-3-yl-acryloyl]-piperidin-4-yl}-acetic acid], for which the IC50 is 90 nM against CCR2, 1010 nM in the test with THP-1 cells [1] and 160 nM in the test on THP-1 cells [2].

As to `O=C(/C=C/c1cc(F)c(F)c(F)c1)N1CCC(C(CO)N2CCC(c3c[nH]c4ncccc34)CC2)CC1` (stereo not drawn) [Cpd 153, (2E)-1-(4-{2-hydroxy-1-[4-(1H-pyrrolo[2,3-b]pyridin-3-yl)-piperidin-1-yl]-ethyl}-piperidin-1-yl)-3-(3,4,5-trifluoro-phenyl)-propenone], the IC50 on CCR2 stood at 3 nM; with THP-1 cells [1], 7 nM; in the test on THP-1 cells [2], 9 nM.

Turning to `O=C(/C=C/c1cc(F)c(F)c(F)c1)N1CCC(C(CO)N2CCC(c3cc[nH]n3)CC2)CC1` (stereo not drawn) [Cpd 156, (2E)-1-(4-{2-hydroxy-1-[4-(1H-pyrazol-3-yl)-piperidin-1-yl]-ethyl}-piperidin-1-yl)-3-(3,4,5-trifluoro-phenyl)-propenone], the IC50 against CCR2 was 80 nM; in the test on THP-1 cells [2] it was 120 nM. In the test with THP-1 cells [1] (THP-1, read-out: Inhibition of MCP-1 Induced Calcium Ion Influx, percent inhibition), the inhibition at 25 µM worked out at 50%.

For the compound `O=C(/C=C/c1ccc(Cl)c(Cl)c1)N1CCC(C(CO)N2CCC(c3ccncc3)CC2)CC1` (stereo not drawn) [Cpd 185, (2E)-3-(3,4-dichloro-phenyl)-1-{4-[2-hydroxy-1-(3,4,5,6-tetrahydro-2H-[4,4′]bipyridinyl-1-yl)-ethyl]-piperidin-1-yl}-propenone], the half-inhibitory concentration (IC50) against CCR2 came out at 840 nM; in the test with THP-1 cells [1], 4600 nM; with THP-1 cells [2], 340 nM.

For `O=C(/C=C/c1cc(F)c(F)c(F)c1)N1CCC(C(CO)N2CCC(c3nc4ccccc4[nH]3)CC2)CC1` (stereo not drawn) [Cpd 175, (2E)-1-(4-{1-[4-(1H-benzoimidazol-2-yl)-piperidin-1-yl]-2-hydroxy-ethyl}-piperidin-1-yl)-3-(3,4,5-trifluoro-phenyl)-propenone], the IC50 against CCR2 turned out to be 188 nM; in the test with THP-1 cells [1] it was 2300 nM; in the test on THP-1 cells [2], 300 nM.

Turning to `O=C(C=Cc1ccc(F)c(F)c1)N1CCC(C(CO)N2CCC(c3c[nH]c4ccc(F)cc34)CC2)CC1` (stereo not drawn) [Cpd 254, (2E)-3-(3,4-difluoro-phenyl)-1-(4-{1-[4-(5-fluoro-1H-indol-3-yl)-piperidin-1-yl]-2-hydroxy-ethyl}-piperidin-1-yl)-propenone], the IC50 is 120 nM at CCR2, 30 nM in the test on THP-1 cells [1] and 20 nM in the test with THP-1 cells [2].

With `O=C(O)C(C1CCN(C(=O)/C=C/c2cccs2)CC1)N1CCC(c2c[nH]c3ccccc23)CC1` (stereo not drawn) [Cpd 103, [4-(1H-indol-3-yl)-piperidin-1-yl]-{1-[(2E)-3-thiophen-2-yl-acryloyl]-piperidin-4-yl}-acetic acid], the IC50 stood at 70 nM against CCR2, 490 nM in the test on THP-1 cells [1] and 90 nM in the test with THP-1 cells [2].

As to `O=C(O)C(C1CCN(C(=O)Nc2ccc(Br)cc2)CC1)N1CCC(c2c[nH]c3ccccc23)CC1` (stereo not drawn) [Cpd 89, [1-(4-bromo-phenylcarbamoyl)-piperidin-4-yl]-[4-(1H-indol-3-yl)-piperidin-1-yl]-acetic acid], the figures for the IC50 at CCR2, with THP-1 cells [1] and with THP-1 cells [2] were 95 nM, 470 nM and 210 nM, respectively.

In the case of `COc1ccc(C2CCN(C(CO)C3CCN(C(=O)/C=C/c4cc(F)c(F)c(F)c4)CC3)CC2)cc1` (stereo not drawn) [Cpd 158, (2E)-1-(4-{2-hydroxy-1-[4-(4-methoxy-phenyl)-piperidin-1-yl]-ethyl}-piperidin-1-yl)-3-(3,4,5-trifluoro-phenyl)-propenone], the IC50 amounted to 100 nM on CCR2, 140 nM in the test on THP-1 cells [1] and 100 nM in the test on THP-1 cells [2].
